From patent publication US20250304576A1 (Cancer Research Technology Limited, priority 2022, published 2025)

Assays:
[1] = molecular target: T1, Recombinant IKKα (Homo sapiens, UniProt O15111); assay: DELFIA IKKα kinase assay (apparent Ki, Cheng-Prusoff); format: biochemical; settings: DELFIA assay (first line of an example)
T1 construct: purchased Millipore, Dundee, UK
T1 sequence (O15111 1-745): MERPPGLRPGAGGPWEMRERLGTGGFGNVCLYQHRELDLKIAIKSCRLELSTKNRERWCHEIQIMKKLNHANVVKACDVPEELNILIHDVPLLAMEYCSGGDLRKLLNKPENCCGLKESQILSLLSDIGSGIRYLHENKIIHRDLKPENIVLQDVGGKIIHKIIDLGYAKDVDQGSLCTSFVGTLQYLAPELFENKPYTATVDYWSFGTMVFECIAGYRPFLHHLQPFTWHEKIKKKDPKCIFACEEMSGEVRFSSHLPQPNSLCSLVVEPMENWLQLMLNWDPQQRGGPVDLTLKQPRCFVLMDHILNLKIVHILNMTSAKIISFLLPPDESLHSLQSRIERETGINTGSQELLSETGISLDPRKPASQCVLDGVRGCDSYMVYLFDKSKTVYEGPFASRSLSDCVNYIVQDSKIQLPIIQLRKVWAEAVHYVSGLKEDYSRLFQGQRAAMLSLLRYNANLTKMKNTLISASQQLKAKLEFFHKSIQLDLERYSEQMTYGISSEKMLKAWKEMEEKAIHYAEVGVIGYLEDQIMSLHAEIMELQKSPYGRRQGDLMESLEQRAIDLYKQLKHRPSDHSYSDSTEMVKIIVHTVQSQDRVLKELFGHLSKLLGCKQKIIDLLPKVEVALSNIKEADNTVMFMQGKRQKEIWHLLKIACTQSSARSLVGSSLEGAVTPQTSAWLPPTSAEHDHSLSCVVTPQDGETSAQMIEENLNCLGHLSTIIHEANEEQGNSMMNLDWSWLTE
In short: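 DELFIA time-resolved fluorescence (ex 340/em 615 nm) quantified phosphorylation of a biotinylated IκB-α Ser32 peptide (0.375 μM) by 37 nM recombinant IKKα or IKKβ. Reactions used 40 μM ATP, Tris pH 7.5 buffer with MgCl2, DTT and BSA, 60 min at 30° C. Cheng-Prusoff equation gave apparent Ki.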

[2] = molecular target: T2, CHUK (IKK alpha) (Homo sapiens, UniProt O15111); assay: Adapta IKKα assay (TR-FRET ADP formation, Life Technologies); format: biochemical; settings: Adapta assay (second line of an example)
T2 construct: purchased Life Technologies (assay performed by the vendor)
T2 sequence (O15111 1-745): T1 sequence (O15111 1-745)
Experimental: IKKα and IKKβ inhibitory activity was determined using three different assays: a dissociation enhanced ligand fluorescent immunoassay (DELFIA) based on the protocol of HTScan™ IKKβ Kinase Assay (Cell Signaling Technology, USA); an Adapta IKKα assay (performed by Life Technologies); a Z′-LYTE™ IKKβ assay (performed by Life Technologies).
The reaction was performed in low-volume white 384-well plates (Corning model 4512).
The test compounds were screened in 1% DMSO (final) in the well. For 10 point titrations, 3-fold serial dilutions were conducted from the starting concentration of 50 mM.
The 2× CHUK (IKK alpha) kinase was prepared in 50 mM HEPES pH 7.5, 0.01% BRIJ-35, 10 mM MgCl2 and 1 mM EGTA. The final 10 μL kinase mixture consisted of 50-250 ng CHUK (IKK alpha) in 32.5 mM HEPES pH 7.5, 0.005% BRIJ-35, 5 mM MgCl2 and 0.5 mM EGTA. No substrate was required, as the assay measures the ability of a compound to inhibit the kinase's intrinsic ATPase activity.
5 μL of 2× Kinase mixture was incubated with 2.5 μL of ATP solution diluted to a 4×working concentration in water, in the presence of 100 nL of 100× test compound in 100% DMSO and 2.4 μL of 30 mM HEPES buffer.
After 30-second plate shake and 1-minute centrifuge at 1000×g, the resulting kinase reaction was allowed to incubate for 1 hour at room temperature before 5 μL of Detection Mix was added.
The Detection Mix, previously prepared in TR-FRET Dilution Buffer, consisted of EDTA (30 mM), Eu-anti-ADP antibody (6 nM) and an Alexa Fluor™ 647 labelled ADP tracer. The Detection Mix contained the EC60 concentration of tracer for 5-150 μM ATP.
After 30-second plate shake and 1-minute centrifuge at 1000×g, the Detection Mix was allowed to equilibrate at room temperature for 1 hour. Then the plate was read using a fluorescence plate reader configured for Adapta™ TR-FRET and the data analysed.
ADP formation was determined by calculating the emission ratio from the assay well. Therefore, the emission ratio was calculated by dividing the intensity of the tracer (acceptor) emission by the intensity of the Eu (donor) emission at 615 nm as shown in the equation below.
The IKKα and IKKb figures quoted in italicised form are from the Adapta assay described above.

Row | Compound | Ki [1] | IC50 [2]
1 | Nc1n[nH]c2ccc(-c3ccnc4[nH]c(CNC5CCCCC5)cc34)cc12 [Example 251, 5-(2-((cyclohexylamino)methyl)-1H-pyrrolo[2,3-b]339yridine-4-yl)-1H-indazol-3-amine] | 74 nM | 6 nM
2 | Nc1n[nH]c2ccc(-c3ccnc4[nH]c(CC5CCCCC5)cc34)cc12 [Example 221, 5-(2-(Cyclohexylmethyl)-1H-pyrrolo[2,3-b]pyridin-4-yl)-1H-indazol-3-amine] | 38 nM | 8 nM
